According to patent publication US20190352288A1, “MATRIX METALLOPROTEINASE (MMP) INHIBITORS AND METHODS OF USE THEREOF” (Foresee Pharmaceuticals Co., Ltd., priority 2018, published 2019):

What was measured:
recombinant human MMP-10 = recombinant human MMP-10 (Homo sapiens, UniProt P09238); assay: MMP selectivity assay, MMP-10; format: biochemical; details: Table 2 selectivity profile
Method: (§1) The inhibitory effect of compounds on the rate of cleaving fluorogenic MMP substrate (Enzo, BML-P128) by recombinant human MMP-12 catalytic domain (Enzo, BML-SE138) was carried out by methods known in the art. Briefly, to each well of a 96-well black opaque plate, all the reagents were sequentially added by pipetting, and the final reaction contained 4 nM of recombinant human MMP-12 catalytic domain, 4 μM of fluorogenic MMP substrate, and various concentrations (0.15 nM to 10,000 nM) of tested compound dilutions in HEPES buffer (pH 7.5) containing 10 mM of CaCl2), 0.01% Brij® 35 (polyoxyethylene (23) lauryl ether), and 0.1 mg/ml of BSA.
(§2) The enzyme and compounds were pre-incubated on a shaker to mix in wells. After an hour of mixing, fluorogenic substrate was added to each well. Reaction without enzyme was used as a blank control in the plate. The plate was then fed into a plate reader to measure fluorescence intensity at Excitation/Emission wavelengths of 340 nm/440 nm every 10 mins for at least 1 hour at 37° C. The IC50 of each compound in MMP-12 inhibition was determined by using a readout obtained at time point 30 minutes.
(§3) The MMP selectivity assay was performed by using other recombinant human MMPs, including MMP-1, MMP-2, MMP-3, MMP-7, MMP-8, MMP-9, MMP-10, MMP-13, and MMP-14. The IC50 of the compounds for the other recombinant human MMPs was determined as described above in Example 1, and are shown in Table 2.

recombinant human MMP-3 = recombinant human MMP-3 (Homo sapiens, UniProt P08254); assay: MMP selectivity assay, MMP-3; format: biochemical; details: Table 2 selectivity profile
Method: as §1, §2, §3

Chain of recombinant human MMP-3 (P08254 100-477): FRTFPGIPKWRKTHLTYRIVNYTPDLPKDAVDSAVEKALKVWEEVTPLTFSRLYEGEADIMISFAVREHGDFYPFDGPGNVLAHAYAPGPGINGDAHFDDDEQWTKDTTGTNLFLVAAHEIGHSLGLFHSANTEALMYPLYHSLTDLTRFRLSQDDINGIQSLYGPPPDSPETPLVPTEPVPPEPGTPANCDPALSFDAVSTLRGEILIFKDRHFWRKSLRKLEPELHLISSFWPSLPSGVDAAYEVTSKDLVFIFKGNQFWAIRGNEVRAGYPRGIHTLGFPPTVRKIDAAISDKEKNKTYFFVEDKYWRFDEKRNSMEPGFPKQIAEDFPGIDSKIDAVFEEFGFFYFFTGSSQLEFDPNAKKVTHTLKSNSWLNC
Chain of recombinant human MMP-10 (P09238 99-476): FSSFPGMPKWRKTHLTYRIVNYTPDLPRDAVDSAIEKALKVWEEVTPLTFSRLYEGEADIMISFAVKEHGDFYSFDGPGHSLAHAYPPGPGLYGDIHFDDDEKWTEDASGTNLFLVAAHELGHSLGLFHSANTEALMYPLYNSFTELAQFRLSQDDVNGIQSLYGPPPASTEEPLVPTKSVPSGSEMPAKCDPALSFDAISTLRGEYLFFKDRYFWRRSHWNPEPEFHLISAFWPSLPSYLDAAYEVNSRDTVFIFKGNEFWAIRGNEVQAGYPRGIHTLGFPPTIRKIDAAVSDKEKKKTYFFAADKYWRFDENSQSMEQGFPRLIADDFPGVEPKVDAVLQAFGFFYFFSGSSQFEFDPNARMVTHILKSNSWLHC

IC50 (recombinant human MMP-10): 1 to 10 µM
IC50 (recombinant human MMP-3): 1 to 10 µM
Structure (SMILES): Cc1cc(COc2ccc(Sc3ccncc3C3NC(=O)NC3=O)cc2)ccn1 (centres unmarked) [PC-16]
